Experimental data published in the supplement of paper PMC11451515.

Test system: NOMO1
Assay: cell viability relative to DMSO control; higher = less cytotoxic
Conditions: 48 h
In short: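 Viability, reported as a per-plate percentage of DMSO wells with cell-free wells as background, came from CellTiter-Glo One luminescence. Reading took place after 48 h at 37°C. Before that, NOMO1 or SEM (500 cells/well) or P12-Ichikawa (1000 cells/well) leukemia cells, adapted for at least four passages in each medium, were seeded in 1536-well plates (5 μl) and pin-dosed with library compounds in DMSO, 47 μM to 0.79 nM over 11 threefold points.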

[1] = RPMI 5 mM glucose + 10% FBS, 0.000781 µM
[2] = RPMI 5 mM glucose + 10% FBS, 0.00234 µM
[3] = RPMI 5 mM glucose + 10% FBS, 0.00702 µM
[4] = RPMI 5 mM glucose + 10% FBS, 0.0211 µM
[5] = RPMI 5 mM glucose + 10% FBS, 0.0632 µM
[6] = RPMI 5 mM glucose + 10% FBS, 0.19 µM
[7] = RPMI 5 mM glucose + 10% FBS, 0.569 µM
[8] = RPMI 5 mM glucose + 10% FBS, 1.71 µM
[9] = RPMI 5 mM glucose + 10% FBS, 5.12 µM
[10] = RPMI 5 mM glucose + 10% FBS, 15.4 µM
[11] = RPMI 5 mM glucose + 10% FBS, 46.1 µM
[12] = HPLM + 10% dialyzed FBS, 0.000781 µM
[13] = HPLM + 10% dialyzed FBS, 0.00234 µM
[14] = HPLM + 10% dialyzed FBS, 0.00702 µM
[15] = HPLM + 10% dialyzed FBS, 0.0211 µM
[16] = HPLM + 10% dialyzed FBS, 0.0632 µM
[17] = HPLM + 10% dialyzed FBS, 0.19 µM
[18] = HPLM + 10% dialyzed FBS, 0.569 µM
[19] = HPLM + 10% dialyzed FBS, 1.71 µM
[20] = HPLM + 10% dialyzed FBS, 5.12 µM
[21] = HPLM + 10% dialyzed FBS, 15.4 µM
[22] = HPLM + 10% dialyzed FBS, 46.1 µM
[23] = RPMI 5 mM glucose + 10% dialyzed FBS, 0.000781 µM
[24] = RPMI 5 mM glucose + 10% dialyzed FBS, 0.00234 µM
[25] = RPMI 5 mM glucose + 10% dialyzed FBS, 0.00702 µM
[26] = RPMI 5 mM glucose + 10% dialyzed FBS, 0.0211 µM
[27] = RPMI 5 mM glucose + 10% dialyzed FBS, 0.0632 µM
[28] = RPMI 5 mM glucose + 10% dialyzed FBS, 0.19 µM
[29] = RPMI 5 mM glucose + 10% dialyzed FBS, 0.569 µM
[30] = RPMI 5 mM glucose + 10% dialyzed FBS, 1.71 µM
[31] = RPMI 5 mM glucose + 10% dialyzed FBS, 5.12 µM
[32] = RPMI 5 mM glucose + 10% dialyzed FBS, 15.4 µM
[33] = RPMI 5 mM glucose + 10% dialyzed FBS, 46.1 µM

CC(=O)OC[C@@H]1O[C@H]([C@H](OC(C)=O)[C@@H]1OC(C)=O)N2\C=C/C(=O)NC2=O
cell viability [1]: 107%
cell viability [2]: 117%
cell viability [3]: 115%
cell viability [4]: 117%
cell viability [5]: 125%
cell viability [6]: 121%
cell viability [7]: 102%
cell viability [8]: 111%
cell viability [9]: 105%
cell viability [10]: 82.9%
cell viability [11]: 22.6%

C[C@]1(O)CC(C1)C2=NC(=C3[N]2C=CN=C3N)C4=CC5=C(C=C4)C=CC(=N5)C6=CC=CC=C6 (stereo not drawn)
cell viability [12]: 95.7%
cell viability [13]: 83.7%
cell viability [14]: 104%
cell viability [15]: 89.9%
cell viability [16]: 107%
cell viability [17]: 72.2%
cell viability [18]: 75.1%
cell viability [19]: 53.8%
cell viability [20]: 31.8%
cell viability [21]: 3.24%
cell viability [22]: 4.22%
cell viability [1]: 86%
cell viability [2]: 88%
cell viability [3]: 92.8%
cell viability [4]: 85.6%
cell viability [5]: 87.4%
cell viability [6]: 85.3%
cell viability [7]: 83.5%
cell viability [8]: 64.3%
cell viability [9]: 33.7%
cell viability [10]: 3.26%
cell viability [11]: 2.26%
cell viability [23]: 86.2%
cell viability [24]: 73.9%
cell viability [25]: 83.8%
cell viability [26]: 91.6%
cell viability [27]: 90.5%
cell viability [28]: 65.8%
cell viability [29]: 82.5%
cell viability [30]: 53.3%
cell viability [31]: 37.7%
cell viability [32]: 4.27%
cell viability [33]: 1.68%

Cc1ccc2nc(NCCN)c3ncc(C)n3c2c1
cell viability [12]: 116%
cell viability [13]: 99.9%
cell viability [14]: 121%
cell viability [15]: 104%
cell viability [16]: 108%
cell viability [17]: 107%
cell viability [18]: 105%
cell viability [19]: 101%
cell viability [20]: 113%
cell viability [21]: 88.7%
cell viability [22]: 8.31%
cell viability [1]: 88.1%
cell viability [2]: 92.2%
cell viability [3]: 91.9%
cell viability [4]: 94.1%
cell viability [5]: 98.1%
cell viability [6]: 98.4%
cell viability [7]: 100%
cell viability [8]: 87.8%
cell viability [9]: 90.2%
cell viability [10]: 84.9%
cell viability [11]: 11.3%
cell viability [23]: 87.9%
cell viability [24]: 95.8%
cell viability [25]: 104%
cell viability [26]: 104%
cell viability [27]: 99%
cell viability [28]: 96%
cell viability [29]: 95.6%
cell viability [30]: 96.7%
cell viability [31]: 100%
cell viability [32]: 81.6%
cell viability [33]: 7.57%

CC(C)(N)c1ccc(-c2nc3ccccc3nc2-c2ccccc2)cc1
cell viability [12]: 112%
cell viability [13]: 118%
cell viability [14]: 109%
cell viability [15]: 68.5%
cell viability [16]: 27.3%
cell viability [17]: 22.3%
cell viability [18]: 12.2%
cell viability [19]: 8.51%
cell viability [20]: 7.84%
cell viability [21]: 5.77%
cell viability [22]: 5.3%
cell viability [1]: 96.1%
cell viability [2]: 116%
cell viability [3]: 112%
cell viability [4]: 111%
cell viability [5]: 69.6%
cell viability [6]: 14.8%
cell viability [7]: 14.1%
cell viability [8]: 6.53%
cell viability [9]: 11.9%
cell viability [10]: 4.8%
cell viability [11]: 5.53%
cell viability [23]: 102%
cell viability [24]: 106%
cell viability [25]: 108%
cell viability [26]: 113%
cell viability [27]: 78.7%
cell viability [28]: 20.3%
cell viability [29]: 27.9%
cell viability [30]: 13.2%
cell viability [31]: 19.3%
cell viability [32]: 6.51%
cell viability [33]: 8.7%

Cc1cc(Nc2cc(N3CCN(C)CC3)nc(/C=C/c3ccccc3)n2)n[nH]1
cell viability [12]: 111%
cell viability [13]: 122%
cell viability [14]: 117%
cell viability [15]: 122%
cell viability [16]: 135%
cell viability [17]: 114%
cell viability [18]: 130%
cell viability [19]: 53.7%
cell viability [20]: 14.8%
cell viability [21]: 5.4%
cell viability [22]: 5.88%
cell viability [1]: 106%
cell viability [2]: 98.4%
cell viability [3]: 110%
cell viability [4]: 112%
cell viability [5]: 115%
cell viability [6]: 123%
cell viability [7]: 100%
cell viability [8]: 47.6%
cell viability [9]: 13.3%
cell viability [10]: 4.18%
cell viability [11]: 3.81%
cell viability [23]: 108%
cell viability [24]: 104%
cell viability [25]: 111%
cell viability [26]: 104%
cell viability [27]: 110%
cell viability [28]: 114%
cell viability [29]: 105%
cell viability [30]: 56.3%
cell viability [31]: 24.2%
cell viability [32]: 7.24%
cell viability [33]: 5%

O=C(O)CCCCCC(=O)NN=C1CCCC1
cell viability [12]: 99.6%
cell viability [13]: 96%
cell viability [14]: 116%
cell viability [15]: 122%
cell viability [16]: 107%
cell viability [17]: 120%
cell viability [18]: 126%
cell viability [19]: 132%
cell viability [20]: 122%
cell viability [21]: 130%
cell viability [22]: 133%
cell viability [1]: 105%
cell viability [2]: 111%
cell viability [3]: 111%
cell viability [4]: 112%
cell viability [5]: 102%
cell viability [6]: 100%
cell viability [7]: 112%
cell viability [8]: 103%
cell viability [9]: 116%
cell viability [10]: 123%
cell viability [11]: 129%
cell viability [23]: 91.2%
cell viability [24]: 92.8%
cell viability [25]: 97.9%
cell viability [26]: 110%
cell viability [27]: 105%
cell viability [28]: 115%
cell viability [29]: 96.6%
cell viability [30]: 109%
cell viability [31]: 118%
cell viability [32]: 121%
cell viability [33]: 103%

CCCN[C@H]1CCc2nc(N)sc2C1
cell viability [12]: 105%
cell viability [13]: 102%
cell viability [14]: 104%
cell viability [15]: 116%
cell viability [16]: 95.4%
cell viability [17]: 102%
cell viability [18]: 119%
cell viability [19]: 112%
cell viability [20]: 123%
cell viability [21]: 118%
cell viability [22]: 114%
cell viability [1]: 86.8%
cell viability [2]: 84.8%
cell viability [3]: 96.6%
cell viability [4]: 89.3%
cell viability [5]: 92.6%
cell viability [6]: 90.6%
cell viability [7]: 85.3%
cell viability [8]: 96.2%
cell viability [9]: 96.7%
cell viability [10]: 90.5%
cell viability [11]: 89.3%
cell viability [23]: 83.9%
cell viability [24]: 93.1%
cell viability [25]: 104%
cell viability [26]: 98.8%
cell viability [27]: 106%
cell viability [28]: 102%
cell viability [29]: 101%
cell viability [30]: 107%
cell viability [31]: 87.1%
cell viability [32]: 109%
cell viability [33]: 82.4%

COC1=CC=C(C=C1)/C2=C(O)/C(=O)C3=C(O)C=C(O)C(=C3O2)CC=C(C)C
cell viability [12]: 105%
cell viability [13]: 120%
cell viability [14]: 122%
cell viability [15]: 114%
cell viability [16]: 132%
cell viability [17]: 117%
cell viability [18]: 115%
cell viability [19]: 127%
cell viability [20]: 124%
cell viability [21]: 104%
cell viability [22]: 130%

COc1cc(C(=O)NC2CCN(C)CC2)ccc1Nc1ncc2c(n1)N(C1CCCC1)CCC(=O)N2C(C)C
cell viability [12]: 103%
cell viability [13]: 121%
cell viability [14]: 110%
cell viability [15]: 122%
cell viability [16]: 118%
cell viability [17]: 112%
cell viability [18]: 115%
cell viability [19]: 113%
cell viability [20]: 115%
cell viability [21]: 58.3%
cell viability [22]: 9.06%
cell viability [1]: 99.3%
cell viability [2]: 105%
cell viability [3]: 101%
cell viability [4]: 108%
cell viability [5]: 102%
cell viability [6]: 118%
cell viability [7]: 102%
cell viability [8]: 107%
cell viability [9]: 119%
cell viability [10]: 75.7%
cell viability [11]: 15.2%
cell viability [23]: 92.7%
cell viability [24]: 113%
cell viability [25]: 100%
cell viability [26]: 110%
cell viability [27]: 100%
cell viability [28]: 106%
cell viability [29]: 104%
cell viability [30]: 117%
cell viability [31]: 109%
cell viability [32]: 105%
cell viability [33]: 20.6%
